In data set [1] the test system is Cryptococcus neoformans. Put plainly: standard agar diffusion method (paper disk), antifungal activity. It is filed as cell-based. To be noted: for zone of inhibition at 10 µg/mL: Cryptococcus neoformans treated with 10 μg/ml, 6 mm disk, PDA medium, incubated 2-3 days, read-out: diameters of the inhibition zones; for inhibition zones at higher concentrations (FIGS. 1 and 2): concentrations of 10 μg/ml and 40 μg/ml. On the procedure: The antifungal activities of FK506 derivatives against fungi such as Cryptococcus neoformans and Candida albicans, which are human pathogenic yeasts, were analyzed by the standard agar diffusion method (Murray et al., 1995 Manual of clinical microbiology (6th ed.), Washington, ASM Press, pp. 1275-1294), 100 μL of a standardized inoculam containing 10^7 CFU/ml, of a fungal suspension was uniformly plated in a Petri dish containing 20 mL of potato-dextrose agar (PDA) medium, and was dried for 5 minutes. A sterilized Whatman No. 1 filter paper disk baying a diameter of 6 mm was wet with each of 0.1 μg, 1 μg, 10 μg and 40 μg/ml of FK506 derivative dissolved in the same solvent as that used for extraction. As a control, an untreated disk and a disk wet with FK506 were used. Each plate was incubated at 30° C. and 37° C. for 2-3 days, and then the antifungal activity of each FK506 derivative was evaluated by comparing the diameters of inhibition zones against Cryptococcus neoformans and Candida albicans. The experiment for analysis of the antifungal activity was repeated at least three times. […] The diameters of the inhibition zones are shown in units of mm.
On the technique in general: Agar diffusion results depend on both activity and mobility in agar.

Data set [2] relates to Candida albicans. Put plainly: serum sensitivity of Candida albicans as a function of time (FIG. 3). It is filed as cell-based. Particulars: result in words. From the text:
FIG. 3 is a graph showing the inhibitory activity of a composition according to one embodiment of the present invention against Candida albicans as a function of time. FIG. 3 is a graph showing an increased or decreased change in the serum sensitivity of Candida albicans for 31-O-demethyl-FK506 that is FK506 derivative. Lower serum sensitivity with the passage of time indicates higher antifungal activity.

The conditions of data set [3]: background statement; result in words; cited from earlier work.

Turning to `C=CC[C@@H]1/C=C(\C)C[C@H](C)C[C@H](OC)[C@H]2O[C@@](O)(C(=O)C(=O)N3CCCC[C@H]3C(=O)O[C@H](/C(C)=C/C3CC[C@@H](O)[C@H](O)C3)[C@H](C)C(O)CC1=O)[C@H](C)C[C@@H]2OC` (stereo in doubt) [Formula (I), 31-O-demethyl-FK506], in data set [1], the zone of inhibition at 10 µg/mL came to 26.4 mm. In data set [1] (comparison with FK506, result in words), the “inhibitory activity against Cryptococcus neoformans compared with FK506” value is recorded as “inhibitory activity higher than FK506”. In data set [1] (result in words), the “inhibition zones at higher concentrations (FIGS. 1 and 2)” value was “large inhibition zones”; the “inhibitory activity against Cryptococcus neoformans (FIGS. 1 and 2)” value (from here on “inhibitory activity … (FIGS. 1 and 2)”) is recorded as “had inhibitory activity”. Further, in data set [2] (from 6 hours after treatment), the “inhibitory activity against Candida albicans compared with FK506, late time points (FIG. 3)” value is on record as “maintained inhibitory activity higher than FK506”. Moreover, the “inhibitory activity against Candida albicans compared with FK506 (FIG. 3)” value in data set [2] (serum sensitivity over time) was “almost equal to that of FK506”.

With `C=CC[C@@H]1/C=C(\C)C[C@H](C)C[C@H](OC)[C@H]2O[C@@](O)(C(=O)C(=O)N3CCCC[C@H]3C(=O)O[C@H](/C(C)=C/[C@@H]3CC[C@@H](O)[C@H](OC)C3)[C@H](C)[C@@H](O)CC1=O)[C@H](C)C[C@@H]2OC` [FK506], the zone of inhibition at 10 µg/mL in data set [1] amounted to 16.8 mm. Besides, the “toxicity or side effects relative to Cyclosporine A” value in data set [3] is on record as “comparable to Cyclosporine A”.

`C=CC[C@@H]1/C=C(\C)C[C@H](C)C[C@H](OC)[C@H]2O[C@@](O)(CC(=O)N3CCCC[C@H]3C(=O)O[C@H](/C(C)=C/C3CC[C@@H](O)[C@H](OC)C3)[C@H](C)[C@H](O)CC1=O)[C@H](C)C[C@@H]2OC` (stereo partly shown) [Formula (II), 9-deoxo-FK506]: in data set [1], the zone of inhibition at 10 µg/mL amounted to 21.6 mm. Also, in data set [1] (result in words), the “inhibitory activity … (FIGS. 1 and 2)” value is listed as “had inhibitory activity”.

On to `C=CC[C@@H]1/C=C(\C)C[C@H](C)C[C@H](OC)[C@H]2O[C@@](O)(CC(=O)N3CCCC[C@H]3C(=O)O[C@H](/C(C)=C/C3CC[C@@H](O)[C@H](O)C3)[C@H](C)[C@H](O)CC1=O)[C@H](C)C[C@@H]2OC` (stereo partly shown) [Formula (III), 9-deoxo-31-O-demethyl-FK506], for which the zone of inhibition at 10 µg/mL in data set [1] came out at 21.6 mm. In data set [1] (result in words), the “inhibition zones at higher concentrations (FIGS. 1 and 2)” value is reported as “large inhibition zones”; the “inhibitory activity … (FIGS. 1 and 2)” value is reported as “had inhibitory activity”.

These data come from patent US9855253B2, “Pharmaceutical composition containing FK506 derivative for treating fungal infection caused by genus Cryptococcus and genus Candida and use thereof” (INTRON BIOTECHNOLOGY CO., LTD., priority 2014, dated 2018).
